From US11172674B2, “Preservation solutions” (ORGAN PRESERVATION SOLUTIONS LIMITED, priority 2017, dated 2021)

Legend:
[1] = Stability of aspirin in preservation solution on storage (HPLC); assay type: physicochemical
Source text: FIG. 1 illustrates the stability of aspirin in a preservation solution: HPLC methods were developed to measure the concentration of aspirin and salicylic acid in the Prior Art solution. Aspirin is rapidly hydrolysed to salicylic acid and acetic acid during storage. […] As an example, FIG. 1 illustrates that storage of the solution for 8 weeks results in 100% of the aspirin converting to salicylic acid and the production of equimolar amounts of damaging acetic acid.

[2] = tested on: human cells; details: Heeneman et al 1993; cited from earlier work

SMILES	parent compound remaining ([1]; Prior Art solution, after 8 weeks storage, HPLC)	aspirin converting to salicylic acid ([1]; storage of the prior art solution for 8 weeks) [%]	concentration toxic to human cells [2] [µM]
CC(=O)Oc1ccccc1C(=O)O [aspirin, acetylsalicylic acid]	none of the parent compound remains	100	
N [ammonia]			300
